Like-named read-outs stand apart in the source and are kept apart here.
Key:
SW620 cells (K-Ras G12V) [1] = test: Phospho-ERK1/2(THR202/TYR204) HTRF assay, SW620; type: cell-based; conditions: read-out: pERK, IC50, SW620
Experimental: (§1) Each of cells in culture medium was seeded in 96-well plates at density indicated in Table 4 and put in a cell incubator to incubate overnight. The next day, the culture medium was removed and the compound diluted in assay medium was added in each well. […] 10 μL of cell lysates from the 96-well plates were transferred to a 384-well plate (Greiner) containing 2.5 μL/well HTRF® pre-mixed antibodies (Cisbio 64AERPEH). The plate was incubated 4 hours at 25° C. and read HTRF signals on Tecan Spark multimode microplate reader. The data were analyzed using a 4-parameter logistic model to calculate IC50 values.

[2] = system: AsPC-1 cells (K-Ras G12D)
Experimental: (§2) Each of cells in culture medium was plated in TC-treated 96-well plates at a density indicated in Table 4 and incubated in a cell incubator overnight. The next day, each of compounds was diluted in culture medium and added to the plates. After 6 days incubation in cell incubator, the cell viability was detected by CellTiter-Glo® Cell Viability Assay kit (Promega).

SW620 cells (K-Ras G12V) [3] = system: SW620 cells (K-Ras G12V)
Experimental: as §2

GppNp-KRAS G12D [4] = target: T1, GppNp-KRAS G12D (Homo sapiens, UniProt P01116, G12D); test: GTP-K-Ras and cRAF interaction assay, GppNp-KRAS G12D; conditions: read-out: Biochemical assays, IC50, KRAS G12D GppNp; GppNp-loaded K-Ras G12D, cRAF RBD interaction, HTRF
GppNp-KRAS G12V [5] = target: T2, GppNp-KRAS G12V (Homo sapiens, UniProt P01116, G12V); test: GTP-K-Ras and cRAF interaction assay, GppNp-KRAS G12V; conditions: read-out: Biochemical assays, IC50, KRAS G12V GppNp; GppNp-loaded K-Ras G12V, cRAF RBD interaction, HTRF
GDP-KRAS G12D [6] = target: T3, GDP-KRAS G12D (Homo sapiens, UniProt P01116, G12D); test: SOS1 catalyzed nucleotide exchange assay, GDP-KRAS G12D; conditions: read-out: Biochemical assays, IC50, KRAS G12D GDP, GDP form K-Ras G12D, TR-FRET
GDP-KRAS G12V [7] = target: T4, GDP-KRAS G12V (Homo sapiens, UniProt P01116, G12V); test: SOS1 catalyzed nucleotide exchange assay, GDP-KRAS G12V; conditions: read-out: Biochemical assays, IC50, KRAS G12V GDP, GDP form K-Ras G12V, TR-FRET
[8] = Mouse pharmacokinetic study; type: in vivo; conditions: Balb/c mouse (female); for AUC0-24 h / Cl_obs / Cmax: plasma; for F: 10 mg/kg po vs 3 mg/kg iv
Experimental: The purpose of this study was to evaluate the pharmacokinetic properties of compounds in Balb/c mouse (female) following single dose administration. Six mice were needed for each compound and the six mice were divided into two groups (n=3/group), group A and group B. Mice in group A were treated with a single 3 mg/kg dose of compound (iv). Mice in group B were treated with a single 10 mg/kg dose of compound (po). Foreach mouse in group A, blood samples were collected at the time point of 0.083 h 0.5 h, 1 h, 2 h, 4 h, 8 h and 24 h post-dose. For each mouse in group B, blood samples were collected at the time point of 0.25 h, 0.5 h, 1 h, 2 h, 4 h, 8 h and 24 h post-dose. Blood samples were placed on ice until centrifugation to obtain plasma samples. The plasma samples were stored at −80° C. until analysis. The concentration of compound in plasma samples was determined using a LC-MS/MS method.

[9] = system: Capan-2 cells (K-Ras G12V)
Experimental: as §1

AGS cells (K-Ras G12D) [10] = system: AGS cells (K-Ras G12D)
Experimental: as §2

AGS cells (K-Ras G12D) [11] = system: AGS cells (K-Ras G12D); remark: listed apart in the source
Experimental: as §1

GDP-KRAS G12D [12] = target: T3, GDP-KRAS G12D; test: biochemical
GDP-KRAS G12V [13] = target: T4, GDP-KRAS G12V; test: biochemical
GppNp-KRAS G12D [14] = target: T1, GppNp-KRAS G12D; test: biochemical
GppNp-KRAS G12V [15] = target: T2, GppNp-KRAS G12V; test: biochemical
[16] = Homo sapiens, SW-620, 2 hours incubation

T3 sequence (P01116 1-169 isoform P01116-2 G12D): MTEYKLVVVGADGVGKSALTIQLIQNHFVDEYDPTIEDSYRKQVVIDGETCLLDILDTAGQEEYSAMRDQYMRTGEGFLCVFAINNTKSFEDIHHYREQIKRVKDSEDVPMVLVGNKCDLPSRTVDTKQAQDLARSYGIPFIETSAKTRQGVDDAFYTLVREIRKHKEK
T1 sequence (P01116 1-169 isoform P01116-2 G12D): as above
T4 sequence (P01116 1-169 isoform P01116-2 G12V): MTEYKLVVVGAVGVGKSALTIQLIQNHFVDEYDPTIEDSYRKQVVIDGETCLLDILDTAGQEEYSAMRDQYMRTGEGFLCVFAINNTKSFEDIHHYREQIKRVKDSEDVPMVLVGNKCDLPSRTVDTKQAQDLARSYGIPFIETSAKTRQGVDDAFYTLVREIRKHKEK
T2 sequence (P01116 1-169 isoform P01116-2 G12V): as above

| SMILES | IC50 (SW620 cells (K-Ras G12V) [1]; 2 hours incubation) | IC50 [2] | IC50 (SW620 cells (K-Ras G12V) [3]) | IC50 (GppNp-KRAS G12D [4]) | IC50 (GppNp-KRAS G12V [5]) | IC50 (GDP-KRAS G12D [6]) | IC50 (GDP-KRAS G12V [7]) | IC50 [9] | also measured |
| --- | --- | --- | --- | --- | --- | --- | --- | --- | --- |
| C#Cc1c(F)ccc2cc(N)cc(-c3c(Cl)c4c5c(nc(OCC67CCCN6CC(F)C7)nc5c3F)N3CCCOCC3CO4)c12 (single isomer, unassigned) [Compound 11B] | 53.5 nM | 806 nM | 117 nM | 233 nM | 311 nM | 5.69 nM | 3.92 nM |  |  |
| N#Cc1c(N)sc2c(F)ccc(-c3c(Cl)c4c5c(nc(OCC67CCCN6CC(F)C7)nc5c3F)N3CCCOCC3CO4)c12 (single isomer, unassigned) [Compound 66B] |  | 5.91 nM | 2.22 nM | 4.06 nM | 8.62 nM | 0.983 nM | 0.924 nM | 1.94 nM | AUC0-24 h ([8]; 3 mg/kg, iv): 8951 ng·h/mL; Cl_obs ([8]; 3 mg/kg, iv): 5.77 mL/min/kg; F [8]: 10.8%; AUC0-24 h ([8]; 10 mg/kg, po): 3217 ng·h/mL; Cmax ([8]; 10 mg/kg, po): 1175 ng/mL |
| C#Cc1c(F)ccc2cc(N)cc(-c3nc4c5c(nc(OC[C@@]67CCCN6C[C@H](F)C7)nc5c3F)N3CC(C)COCC3N4C)c12 (single isomer, unassigned) [Compound 103] | 10.1 nM | 180 nM | 14.5 nM | 214 nM | 101 nM | 3.45 nM | 1.79 nM |  |  |
| CSc1cccc2cc(O)cc(-c3nc4c5c(nc(OC[C@@]67CCCN6C[C@H](F)C7)nc5c3F)N3CCCOC[C@H]3N4C)c12 [Compound 20] |  | 110 nM | 24.4 nM |  |  |  |  | 10.3 nM | IC50 (AGS cells (K-Ras G12D) [10]): 22.1 nM |
| C#Cc1c(F)ccc2cc(N)cc(-c3nc4c5c(nc(OCC67CCCN6CC(F)C7)nc5c3F)N3CCCCCC3CO4)c12 (stereo not drawn) [Compound 27B] | 12.4 nM | 110 nM | 16.9 nM | 174 nM | 563 nM | 2.51 nM | 2.69 nM |  |  |
| C#Cc1c(F)ccc2cc(N)cc(-c3nc4c5c(nc(OC[C@@]67CCCN6C[C@H](F)C7)nc5c3F)N3[C@@H](COCC[C@@H]3C)CO4)c12 [Compound 38A] | 0.648 nM | 28.7 nM | 2.64 nM | 51.9 nM | 75.6 nM | 0.46 nM | 0.292 nM |  | AUC0-24 h ([8]; 3 mg/kg, iv): 4004 ng·h/mL; Cl_obs ([8]; 3 mg/kg, iv): 12.7 mL/min/kg; F [8]: 39.1%; AUC0-24 h ([8]; 10 mg/kg, po): 5213 ng·h/mL; Cmax ([8]; 10 mg/kg, po): 971 ng/mL |
| C#Cc1c(F)ccc2cc(N)cc(-c3nc4c5c(nc(OCC67CCCN6CC(F)C7)nc5c3F)N3C(C)CCOCC3CO4)c12 (stereo not drawn) [Compound 38B] | 2.59 nM | 61.3 nM | 5.47 nM | 174 nM | 685 nM | 1.05 nM | 0.397 nM |  |  |
| [2H]C([2H])([2H])N1c2nc(-c3cc(N)cc4ccc(F)c(C#C)c34)c(F)c3nc(OC[C@@]45CCCN4C[C@H](F)C5)nc(c23)N2CCCOC[C@H]21 [Compound 48] |  | 26.6 nM | 2.55 nM |  |  |  |  | 1.65 nM | IC50 (SW620 cells (K-Ras G12V) [1]; [16]): 3.68 nM; IC50 (AGS cells (K-Ras G12D) [11]): 3.53 nM; IC50 (AGS cells (K-Ras G12D) [10]): 3.44 nM; IC50 (GDP-KRAS G12D [12]): 0.759 nM; IC50 (GDP-KRAS G12V [13]): 0.595 nM; IC50 (GppNp-KRAS G12D [14]): 35.8 nM; IC50 (GppNp-KRAS G12V [15]): 55.4 nM |
| C#Cc1c(F)ccc2cc(N)cc(-c3nc4c5c(nc(OCC67CCCN6CC(F)C7)nc5c3F)N3C(C(F)F)CCOCC3N4C)c12 (stereo not drawn) [Compound 52B] |  | 111 nM | 29.5 nM | 302 nM | 622 nM | 3.25 nM | 1.97 nM | 2.01 nM |  |
| C#Cc1c(F)ccc2cc(N)cc(-c3nc4c5c(nc(OC[C@@]67CCCN6C[C@H](F)C7)nc5c3F)N3CCCOCC3N4CCC(F)(F)F)c12 (stereo partly drawn) [Compound 104] |  |  |  |  |  |  |  |  | IC50 (AGS cells (K-Ras G12D) [11]): 485 nM; IC50 (GDP-KRAS G12D [12]): 9.19 nM; IC50 (GDP-KRAS G12V [13]): 17.6 nM; IC50 (GppNp-KRAS G12D [14]): > 1000 nM; IC50 (GppNp-KRAS G12V [15]): > 1000 nM |
| C#Cc1c(F)ccc2cc(N)cc(-c3nc4c5c(nc(OC[C@@]67CCCN6C[C@H](F)C7)nc5c3F)N3CC(F)(F)CCC[C@@H]3N4C)c12 [Compound 106A] |  |  |  | > 1000 nM | > 1000 nM | 630 nM | 226 nM |  |  |
| C#Cc1c(F)ccc2cc(N)cc(-c3nc4c5c(nc(OC[C@@]67CCCN6C[C@H](F)C7)nc5c3F)N3CCC=C[C@H](F)[C@H]3N4C)c12 [Compound 108A] |  | 62.7 nM | 15.8 nM | 106 nM | 214 nM | 3.32 nM | 2.95 nM | 8.81 nM |  |
| C#Cc1c(F)ccc2cc(N)cc(-c3nc4c5c(nc(OC[C@@]67CCCN6C[C@H](F)C7)nc5c3F)N3CCCOCC3N4)c12 (stereo partly drawn) [Compound 113] |  | 587 nM | 45.4 nM |  |  |  |  |  | IC50 (SW620 cells (K-Ras G12V) [1]; [16]): 21.4 nM; IC50 (AGS cells (K-Ras G12D) [11]): 33.6 nM; IC50 (AGS cells (K-Ras G12D) [10]): 35.1 nM; IC50 (GDP-KRAS G12D [12]): 4.62 nM; IC50 (GDP-KRAS G12V [13]): 3.81 nM; IC50 (GppNp-KRAS G12D [14]): 623 nM; IC50 (GppNp-KRAS G12V [15]): 513 nM |
| C#Cc1c(F)ccc2cc(N)cc(-c3nc4c5c(nc(OC[C@@]67CCCN6C[C@H](F)C7)nc5c3F)N3[C@H]5COC[C@H]5COC[C@H]3N4C)c12 [Compound 123D] |  |  |  |  |  |  |  | 2.07 nM | IC50 (AGS cells (K-Ras G12D) [11]): 2.18 nM |
| C#Cc1c(F)ccc2cc(N)cc(-c3nc4c5c(nc(OCC67CCCN6CC(F)C7)nc5c3F)N3C(C#N)CCCCC3N4C)c12 (stereo not drawn) [Compound 168B] |  |  |  | > 1000 nM | > 1000 nM | 503 nM | 631 nM |  |  |
| C#Cc1c(F)ccc2cc(N)cc(-c3nc4c5c(nc(OCC67CC(=C)CN6CC(OC)C7)nc5c3F)N3CCCOCC3N4C)c12 (stereo not drawn) [Compound 169] |  | 93.6 nM | 15.2 nM | 164 nM | 245 nM | 1.67 nM | 3.33 nM | 0.778 nM |  |

— patent US20260200947A1, “FUSED CYCLIC COMPOUNDS AND USE THEREOF” (Jacobio Pharmaceuticals Co., Ltd., priority 2022, published 2026)
